Reference: the supplement of paper PMC11451515

Tests used:
Settings in all cases: 48 h
NOMO1 [1] = assay: cell viability relative to DMSO control; higher = less cytotoxic
Method in brief: (§1)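 Viability is expressed as a percentage of DMSO wells within each plate, and cell-free wells serve as background. Seeding densities in the 1536-well plates (5 μl) were 500 cells/well for NOMO1 or SEM leukemia cells and 1000 cells/well for P12-Ichikawa. Each line was adapted for at least four passages in each medium. Library compounds in DMSO were pin-dosed at 47 μM to 0.79 nM (11 points, threefold), and CellTiter-Glo One luminescence was read after 48 h at 37°C.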

SEM cells [2] = assay: as above
Method in brief: as §1

P12-Ichikawa [3] = assay: as above
Method in brief: as §1

NOMO1 [4] = assay: AUC of viability dose-response curve (% viability x log10 dose units); higher = less sensitive
Method in brief: (§2)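 Leukemia cells adapted to each medium were seeded in 1536-well plates (500 or 1000 cells/well) and given library compounds in DMSO for 48 h at 37°C. The 11 threefold doses spanned 47 μM to 0.79 nM, and CellTiter-Glo One luminescence was normalised per plate to DMSO and cell-free wells before four-parameter log-logistic fitting on log10 dose. Area under the curve was integrated with the trapezoidal rule, scaling curves above full viability and removing curves that failed quality control.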

SEM cells [5] = assay: as above
Method in brief: as §2

P12-Ichikawa [6] = assay: as above
Method in brief: as §2

CC1(C)[C@@H](O)CC[C@@]2(C)[C@H]1CC[C@]3(C)[C@@H]2C(=O)\C=C/4[C@@H]5C[C@](C)(CC[C@]5(C)CC[C@@]34C)C(O)=O
cell viability [%]
Settings | NOMO1 [1] | P12-Ichikawa [3] | SEM cells [2]
HPLM + 10% dialyzed FBS, 0.000781 µM | 102 | 99.9 | 99.3
HPLM + 10% dialyzed FBS, 0.00234 µM | 113 | 125 | 98.8
HPLM + 10% dialyzed FBS, 0.00702 µM | 120 | 117 | 99.7
HPLM + 10% dialyzed FBS, 0.0211 µM | 127 | 112 | 104
HPLM + 10% dialyzed FBS, 0.0632 µM | 116 | 109 | 105
HPLM + 10% dialyzed FBS, 0.19 µM | 113 | 118 | 93.9
HPLM + 10% dialyzed FBS, 0.569 µM | 118 | 110 | 99
HPLM + 10% dialyzed FBS, 1.71 µM | 118 | 113 | 110
HPLM + 10% dialyzed FBS, 5.12 µM | 116 | 104 | 99.3
HPLM + 10% dialyzed FBS, 15.4 µM | 124 | 102 | 90.7
HPLM + 10% dialyzed FBS, 46.1 µM | 112 | 97.2 | 86.9
RPMI 5 mM glucose + 10% FBS, 0.000781 µM | 110 | 109 | 98.4
RPMI 5 mM glucose + 10% FBS, 0.00234 µM | 99.1 | 121 | 113
RPMI 5 mM glucose + 10% FBS, 0.00702 µM | 110 | 116 | 108
RPMI 5 mM glucose + 10% FBS, 0.0211 µM | 116 | 122 | 108
RPMI 5 mM glucose + 10% FBS, 0.0632 µM | 95.7 | 114 | 101
RPMI 5 mM glucose + 10% FBS, 0.19 µM | 103 | 118 | 113
RPMI 5 mM glucose + 10% FBS, 0.569 µM | 102 | 110 | 97.3
RPMI 5 mM glucose + 10% FBS, 1.71 µM | 95 | 122 | 108
RPMI 5 mM glucose + 10% FBS, 5.12 µM | 98.1 | 100 | 99.6
RPMI 5 mM glucose + 10% FBS, 15.4 µM | 93.9 | 110 | 101
RPMI 5 mM glucose + 10% FBS, 46.1 µM | 86.8 | 111 | 86.1
RPMI 5 mM glucose + 10% dialyzed FBS, 0.000781 µM | 104 | 97.5 | 100
RPMI 5 mM glucose + 10% dialyzed FBS, 0.00234 µM | 108 | 105 | 92.7
RPMI 5 mM glucose + 10% dialyzed FBS, 0.00702 µM | 117 | 113 | 112
RPMI 5 mM glucose + 10% dialyzed FBS, 0.0211 µM | 115 | 113 | 109
RPMI 5 mM glucose + 10% dialyzed FBS, 0.0632 µM | 115 | 108 | 98.6
RPMI 5 mM glucose + 10% dialyzed FBS, 0.19 µM | 103 | 104 | 108
RPMI 5 mM glucose + 10% dialyzed FBS, 0.569 µM | 116 | 98.9 | 114
RPMI 5 mM glucose + 10% dialyzed FBS, 1.71 µM | 117 | 106 | 103
RPMI 5 mM glucose + 10% dialyzed FBS, 5.12 µM | 92 | 94.6 | 90.2
RPMI 5 mM glucose + 10% dialyzed FBS, 15.4 µM | 97.7 | 103 | 107
RPMI 5 mM glucose + 10% dialyzed FBS, 46.1 µM | 97.9 | 96.9 | 102

AUC of viability dose-response curve
Settings | NOMO1 [4] | P12-Ichikawa [6] | SEM cells [5]
HPLM + 10% dialyzed FBS | 465 | 464 | 468
RPMI 5 mM glucose + 10% FBS | 448 | 468 | 470
RPMI 5 mM glucose + 10% dialyzed FBS | 460 | 461 | 477
